≈ marks a conversion by molar mass, not a printed value. Where a name gives a salt, the structure may show the parent alone. Read-outs that look alike come from different tables or passages of the source.
Key:
[1] = drug saturated solubility in water
[2] = subcutaneous injection of PLGA microspheres containing the drug; 50 mg/rabbit; cited from earlier work
[3] = oil-in-water coefficient (logP)

Compound | solubility ([1]; water) | time the effective serum concentration lasted [2] | logP [3] | solubility [1]
Oc1ccc2c3c1O[C@H]1[C@@H](O)CC[C@@]4(O)[C@@H](C2)N(CC2CCC2)CC[C@]314 [Nalbuphine HCl] | > 25000 µg/mL |  |  | 
CCCCCCCCCC(=O)Oc1ccc2c3c1O[C@H]1[C@@H](O)CC[C@@]4(O)[C@@H](C2)N(CC2CCC2)CC[C@]314 [Nalbuphine decanoate] |  | 4 days | 3.3 | 0.67 µg/mL (≈ 1.31 µM)
CCCCCCC(=O)Oc1ccc2c3c1O[C@H]1[C@@H](O)CC[C@@]4(O)[C@@H](C2)N(CC2CCC2)CC[C@]314 [Nalbuphine enanthate] |  |  | 1.94 | 3 µg/mL (≈ 6.39 µM)
CC(C)(C)C(=O)Oc1ccc2c3c1O[C@H]1[C@@H](O)CC[C@@]4(O)[C@@H](C2)N(CC2CCC2)CC[C@]314 [Nalbuphine pivalate] |  | 4 days | 1.42 | 33.7 µg/mL (≈ 76.3 µM)
CCC(=O)Oc1ccc2c3c1O[C@H]1[C@@H](O)CC[C@@]4(O)[C@@H](C2)N(CC2CCC2)CC[C@]314 [Nalbuphine propionate] |  | 4 days | 1.05 | 44.7 µg/mL (≈ 108 µM)
O=C(CCCCCCCCC(=O)Oc1ccc2c3c1O[C@H]1[C@@H](O)CC[C@@]4(O)[C@@H](C2)N(CC2CCC2)CC[C@]314)Oc1ccc2c3c1O[C@H]1[C@@H](O)CC[C@@]4(O)[C@@H](C2)N(CC2CCC2)CC[C@]314 [Sebacoyl dinalbuphine ester] |  |  | 3.15 | < 0.25 µg/mL
